Data reported in US20080279800A1, “AROMACHEMICALS” (Flexitral, Inc., priority 2007, published 2008).

Test: Toxicology tests, oral LD50
Settings: rat, in vivo, rats

CC(C(C)C(C)(C)C)C(C)C1(C)CO1 (stereo not shown) [2-methyl-2-(1,2,3,4,4-pentamethylpentyl)oxirane]
LD50: > 2000 mg/kg
